Laboratory results as given in paper PMC11959965 (Acta Pharmaceutica Sinica. B, 2024).
“Also recorded” adds a separate entry of the source.

Columns and labels:
TSPO [1] = target: T1, TSPO (Rattus norvegicus, UniProt P16257); test: Micro PET/CT imaging in KA-induced epileptic rats; assay type: in vivo, SD rats; conditions: 2 mg/kg i.v. 10 min prior to [18F]F-TFQC, P < 0.05
TSPO [2] = conditions: read-out: human U87MG Ki; cited from earlier work
TSPO [3] = target: T1, TSPO; test: In vitro autoradiography on rat brain slices; assay type: binding; conditions: sham rat brain slices; PK11195 14.17 μmol/L, [19F]F-TFQC 12.91 μmol/L; 14.5 nmol/L [18F]F-TFQC; P < 0.001

T1 sequence (P16257 whole entry): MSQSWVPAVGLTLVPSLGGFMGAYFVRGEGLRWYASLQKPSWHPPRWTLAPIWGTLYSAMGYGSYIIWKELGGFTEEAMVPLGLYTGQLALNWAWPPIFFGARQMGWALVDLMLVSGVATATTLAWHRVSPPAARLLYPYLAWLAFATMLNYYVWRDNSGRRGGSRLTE

blocking of [18F]F-TFQC radioactivity in the right hippocampus (TSPO [1])	blocking of [18F]F-TFQC autoradiography signals (TSPO [3])	Structure (SMILES)	Ki (TSPO [2])
blocked	disappeared; also recorded: blocked	CC[C@@H](C)N(C)C(=O)c1nc(-c2cccc(C(F)(F)F)c2)c2ccccc2n1 [[^19F]F-TFQC, N-((2R)-but-2-yl)-N-methyl-4-(3-(trifluoromethyl)phenyl)quinazoline-2-carboxamide]	1.19 nM
–	disappeared; also recorded: blocked	CCC(C)N(C)C(=O)c1cc2ccccc2c(-c2ccccc2Cl)n1 (stereo not shown) [PK11195, reference compound]	–
